Assay results published in patent US20040120954A1, “Regulation of mt1-mmp activity” (priority 2000, published 2004).

Legend:
[1] = test system: HT1080 cells; test: Matrigel invasion assay (modified Boiden-chamber method); assay type: cell-based, human; settings: HT1080 cells transfected with the expression plasmid (with GFP), 14 hrs (FIG. 15)
Description: Matrigel Invasion Chambers were prepared according to the manufacturer's instructions (Becton Dickinson Labware, MA, USA) by coating, with […] of Matrigel, the 8 μm-pore sized membrane of the culture inserts for 24-well plates (Falcon). A 0.5 ml aliquot of transfected HT1080 cell suspension at 0.1×10^5/ml was seeded on the upper chamber and incubated at 37° C. in a humidified chamber. Hepatocyte growth factor (Toyobo; 10 ng/ml) was added to the lower chamber as a chemo-attractant. After 14 hrs of incubation, cells remaining on the upper surface of the membrane were removed, and cells on the lower surface were fixed with 3% para-formaldehyde in PBS. Green fluorescent protein (GFP)-positive cells that had invaded to the lower, surface were counted using fluorescence microscopy (×40).
Cells were transiently transfected with a vector for MT1PEX-F, together with an expression vector for green fluorescent protein (GFP), and GFP-positive invading cells were counted under fluorescence microscopy. HT1080 cells were co-transfected with expression vectors for MT1PEX-F and GFP, or with an expression vector for GFP alone. The cells were assayed for Matrigel invasion as described below. The modified Boiden-chamber method was carried out. […]
TIMP-2 at 0.5 μg/ml was added to the upper and lower chambers. GFP-positive cells on the surface of the lower chamber were counted using fluorescence microscopy. […]

[2] = target: T1, proMMP-2 (Homo sapiens, UniProt P08253); test: ProMMP-2 binding assay on transfected COS1 cells; assay type: cell-based; settings: COS1 cells co-transfected with MT1-MMP (FIG. 29)
T1 construct: made in house; host or cells: HighFive insect cells infected with recombinant baculovirus; purified from culture supernatant
T1 sequence (P08253 30-660 limits assumed): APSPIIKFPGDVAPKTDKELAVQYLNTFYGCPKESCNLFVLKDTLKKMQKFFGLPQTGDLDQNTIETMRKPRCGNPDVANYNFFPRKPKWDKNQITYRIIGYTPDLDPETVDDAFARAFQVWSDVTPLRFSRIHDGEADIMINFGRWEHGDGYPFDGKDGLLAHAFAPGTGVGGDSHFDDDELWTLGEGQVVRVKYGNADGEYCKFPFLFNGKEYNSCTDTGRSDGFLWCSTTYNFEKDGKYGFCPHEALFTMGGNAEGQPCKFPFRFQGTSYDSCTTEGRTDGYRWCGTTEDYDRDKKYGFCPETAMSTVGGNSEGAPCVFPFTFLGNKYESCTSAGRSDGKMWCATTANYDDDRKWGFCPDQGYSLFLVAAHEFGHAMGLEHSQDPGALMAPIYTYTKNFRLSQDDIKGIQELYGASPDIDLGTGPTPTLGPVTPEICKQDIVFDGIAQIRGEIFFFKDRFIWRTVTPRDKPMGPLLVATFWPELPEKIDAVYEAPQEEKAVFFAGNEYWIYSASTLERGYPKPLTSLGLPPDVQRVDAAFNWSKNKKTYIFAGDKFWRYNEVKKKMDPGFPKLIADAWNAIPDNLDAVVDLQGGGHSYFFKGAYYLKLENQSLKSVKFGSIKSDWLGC
Description: Transfected COS1 cells were cultured in a 24-well plate (0.2×10^4/well). Forty-eight hours after transfection, the cells were washed three times with serum-free DMEM, and incubated with purified proMMP-2 (2 μg/ml) in the serum-free DMEM at 25° C. for 1 hr. The cells were then washed three times with serum-free DMEM containing 5% dimethyl sulfoxide (DMSO) to remove free proMMP-2, and lysed in 50 μl of a non-reducing SDS-loading buffer. MMP-2 bound to the cells was analyzed by gelatin zymography.

effect on proMMP-2 binding to the cell surface [2]: not affected
Substance: MT1PEX-F: Catalytic domain-deleted FLAG-tagged MT1-MMP (Δ Tyr112-Pro312), expressed by transfection
suppression of Matrigel invasion [1]: 70%
